Key:
[1] = target: Muscarinic acetylcholine receptor; experiment: In vitro binding affinity to the Muscarinic acetylcholine receptor by displacing [3H]QNB from the rat brain tissues
[2] = target: Muscarinic acetylcholine receptor; experiment: In vitro binding affinity to the Muscarinic acetylcholine receptor by displacing [3H]PZ from the rat brain tissues
[3] = target: Muscarinic acetylcholine receptor; experiment: In vitro binding affinity to the Muscarinic acetylcholine receptor by displacing [3H]-QNB from the rat heart tissues; type: protein assay
[4] = target: Muscarinic acetylcholine receptor; experiment: In vitro binding affinity to the Muscarinic acetylcholine receptor by displacing [3H]- Oxo-M from the rat brain tissues
[5] = system: Muscarinic acetylcholine receptors (Rattus norvegicus); experiment: Relative efficacy and M1 selectivity by agonist index.
[6] = target: Muscarinic acetylcholine receptor; experiment: In vitro binding affinity to the Muscarinic acetylcholine receptor by displacing [3H]OXO-M from the rat brain tissues
[7] = target: Muscarinic acetylcholine receptor M3 (Homo sapiens, UniProt P20309); experiment: In Vitro activity at the cloned Human Muscarinic acetylcholine receptor M3 determined by receptor selection and amplification technology (R-SAT)
Sequence of Muscarinic acetylcholine receptor M3 (P20309 whole entry): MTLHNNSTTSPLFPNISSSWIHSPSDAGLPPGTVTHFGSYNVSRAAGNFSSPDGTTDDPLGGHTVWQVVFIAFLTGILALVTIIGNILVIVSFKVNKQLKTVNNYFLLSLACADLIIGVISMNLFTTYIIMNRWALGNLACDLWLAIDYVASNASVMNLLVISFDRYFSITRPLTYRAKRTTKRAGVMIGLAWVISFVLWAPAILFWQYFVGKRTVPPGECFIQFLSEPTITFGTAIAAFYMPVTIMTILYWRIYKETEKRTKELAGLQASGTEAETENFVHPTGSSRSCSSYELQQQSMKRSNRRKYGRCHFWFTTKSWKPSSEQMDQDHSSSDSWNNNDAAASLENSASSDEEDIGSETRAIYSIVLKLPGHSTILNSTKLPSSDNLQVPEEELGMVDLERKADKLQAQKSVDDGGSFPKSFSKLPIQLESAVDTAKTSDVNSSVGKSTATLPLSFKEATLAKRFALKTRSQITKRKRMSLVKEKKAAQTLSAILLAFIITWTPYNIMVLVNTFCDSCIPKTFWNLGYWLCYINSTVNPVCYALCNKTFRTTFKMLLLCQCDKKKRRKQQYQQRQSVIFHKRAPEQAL

[8] = target: T1, Muscarinic acetylcholine receptor M5 (Homo sapiens, UniProt P08912); experiment: In Vitro activity at the cloned Human Muscarinic acetylcholine receptor M5 determined by receptor selection and amplification technology (R-SAT)
T1 sequence (P08912 whole entry): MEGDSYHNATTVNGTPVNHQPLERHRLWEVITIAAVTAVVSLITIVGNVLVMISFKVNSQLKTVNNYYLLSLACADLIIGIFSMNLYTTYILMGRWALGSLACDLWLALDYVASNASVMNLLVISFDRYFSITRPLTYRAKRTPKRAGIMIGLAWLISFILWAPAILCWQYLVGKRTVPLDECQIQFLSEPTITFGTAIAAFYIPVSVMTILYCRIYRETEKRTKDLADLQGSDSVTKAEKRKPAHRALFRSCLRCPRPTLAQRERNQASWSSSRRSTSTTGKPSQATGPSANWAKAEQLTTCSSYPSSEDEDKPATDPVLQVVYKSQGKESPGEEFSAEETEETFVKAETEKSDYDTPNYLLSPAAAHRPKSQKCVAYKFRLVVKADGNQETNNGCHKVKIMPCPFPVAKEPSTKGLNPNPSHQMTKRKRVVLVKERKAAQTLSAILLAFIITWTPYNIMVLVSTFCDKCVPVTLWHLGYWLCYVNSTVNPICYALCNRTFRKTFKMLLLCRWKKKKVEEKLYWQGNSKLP

[9] = target: T2, Muscarinic acetylcholine receptor M2 (Homo sapiens, UniProt P08172); experiment: In Vitro activity at the cloned Human Muscarinic acetylcholine receptor M2 determined by receptor selection and amplification technology (R-SAT).
T2 sequence (P08172 whole entry): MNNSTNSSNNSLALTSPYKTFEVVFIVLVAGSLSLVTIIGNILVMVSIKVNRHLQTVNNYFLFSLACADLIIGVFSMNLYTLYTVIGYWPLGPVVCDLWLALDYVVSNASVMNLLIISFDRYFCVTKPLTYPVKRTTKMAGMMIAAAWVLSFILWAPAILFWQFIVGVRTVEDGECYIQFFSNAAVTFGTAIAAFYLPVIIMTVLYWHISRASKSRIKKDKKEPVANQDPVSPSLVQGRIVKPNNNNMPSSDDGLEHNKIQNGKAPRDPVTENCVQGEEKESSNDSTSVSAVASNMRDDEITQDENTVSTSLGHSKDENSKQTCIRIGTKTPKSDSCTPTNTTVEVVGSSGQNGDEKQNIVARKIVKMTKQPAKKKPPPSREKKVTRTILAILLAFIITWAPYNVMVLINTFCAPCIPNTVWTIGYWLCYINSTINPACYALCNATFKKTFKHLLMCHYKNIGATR

[10] = target: T3, Muscarinic acetylcholine receptor M4 (Homo sapiens, UniProt P08173); experiment: In Vitro activity at the cloned Human Muscarinic acetylcholine receptor M4 determined by receptor selection and amplification technology (R-SAT)
T3 sequence (P08173 whole entry): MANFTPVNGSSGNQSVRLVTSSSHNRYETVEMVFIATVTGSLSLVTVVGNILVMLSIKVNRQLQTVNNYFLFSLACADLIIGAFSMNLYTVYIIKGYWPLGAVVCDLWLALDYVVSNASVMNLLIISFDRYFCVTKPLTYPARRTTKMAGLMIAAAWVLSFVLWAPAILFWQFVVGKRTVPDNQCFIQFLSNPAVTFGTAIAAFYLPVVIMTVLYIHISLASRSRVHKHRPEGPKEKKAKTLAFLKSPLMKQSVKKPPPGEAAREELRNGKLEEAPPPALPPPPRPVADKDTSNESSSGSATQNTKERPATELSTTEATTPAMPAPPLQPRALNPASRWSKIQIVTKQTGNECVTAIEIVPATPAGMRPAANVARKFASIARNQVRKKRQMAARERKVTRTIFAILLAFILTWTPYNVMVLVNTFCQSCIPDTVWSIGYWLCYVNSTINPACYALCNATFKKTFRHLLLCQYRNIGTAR

[11] = target: T4, Muscarinic acetylcholine receptor M1 (Homo sapiens, UniProt P11229); experiment: In Vitro evaluation activity at the cloned Human Muscarinic acetylcholine receptor M1 determined by receptor selection and amplification technology (R-SAT)
T4 sequence (P11229 whole entry): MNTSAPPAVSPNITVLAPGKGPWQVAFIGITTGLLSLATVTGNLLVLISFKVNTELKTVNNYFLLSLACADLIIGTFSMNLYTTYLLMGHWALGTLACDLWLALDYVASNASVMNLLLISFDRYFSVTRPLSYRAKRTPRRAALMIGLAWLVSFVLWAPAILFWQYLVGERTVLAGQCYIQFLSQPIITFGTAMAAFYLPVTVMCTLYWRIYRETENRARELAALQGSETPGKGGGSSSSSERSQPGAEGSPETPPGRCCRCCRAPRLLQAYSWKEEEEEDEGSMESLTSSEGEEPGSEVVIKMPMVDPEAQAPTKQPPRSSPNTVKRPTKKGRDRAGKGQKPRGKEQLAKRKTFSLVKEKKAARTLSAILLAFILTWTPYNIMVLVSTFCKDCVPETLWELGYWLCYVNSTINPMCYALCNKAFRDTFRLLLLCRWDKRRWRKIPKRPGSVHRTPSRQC

| IC50 [1] [nM] | IC50 [2] [nM] | IC50 [3] [nM] | Agonist index [5] | IC50 [6] [nM] | EC50 [7] [nM] | EC50 [8] [nM] | EC50 [9] [nM] | EC50 [10] [nM] | EC50 [11] [nM] | Structure (SMILES) | IC50 [4] [nM] |
| --- | --- | --- | --- | --- | --- | --- | --- | --- | --- | --- | --- |
| 370 | 13 | 360 | 5.4 | 11 | – | – | – | – | – | CC(C)Oc1noc2c1CNCCC2 | – |
| 530 | 18 | 140 | 25 | 3.4 | 500 | – | 41 | 67 | 95 | CCOc1noc2c1CNCCC2 | – |

Second part, the compound before the results:

| Structure (SMILES) | IC50 [1] [nM] | IC50 [2] [nM] | IC50 [3] [nM] | Agonist index [5] | IC50 [6] [nM] | EC50 [7] [nM] | EC50 [8] [nM] | EC50 [9] [nM] | EC50 [10] [nM] | EC50 [11] [nM] | IC50 [4] [nM] |
| --- | --- | --- | --- | --- | --- | --- | --- | --- | --- | --- | --- |
| O=C1CCCN1CC#CCN1CCCC1 [OXOTREMORINE] | 2300 | 93 | 84 | – | – | – | – | – | – | – | 1.2 |
| COc1noc2c1CNCCC2 | 6400 | 390 | 350 | 104 | 10 | 620 | 4700 | 43 | 240 | 460 | – |
| C#CCOc1noc2c1CNCCC2 | 480 | 23 | 82 | 104 | 0.75 | 130 | 950 | 6.7 | 30 | 140 | – |
